{
  "source": "PubChem BioAssay AID1963421",
  "about": "(Molecular Pharmacology Branch, DTP, NCI, 2024);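 also: seven day drug exposure begun three days after spheroid seeding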;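 as to viability, T/C: 100% = DMSO vehicle wells and lower values mean less viable spheroid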",
  "test_system": "519858-162-T-J1-PDC complex spheroid growth, % test/control",
  "assay": "Anticancer human tumor 519858-162-T-J1-PDC patient-derived colon adenocarcinoma cell line growth inhibition [Asc]",
  "details": "for IC50: curve of first compound; for viability, T/C: stronger effect = lower value",
  "method_in_brief": "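Concentration series start at each agent's clinical Cmax, or at 10 microM when none is established, and drop in half-log steps; agents are applied alone or together to complex spheroids built with HUVEC and hMSC.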",
  "data": [
    {"smiles": "Cc1nc(N2CCC3(CC2)COC(C)C3N)c(CO)nc1Sc1ccnc(N)c1Cl", "note": "(centres undefined) + CCN1C(C(=O)NC23CCC(C(=O)O)(CC2)CC3)C(c2cccc(Cl)c2F)C2(C(=O)Nc3cc(Cl)ccc32)C12CCCCC2", "values": [
      {"measurement": "IC50", "setting": "second compound 0.00949 µM", "result": 0.578, "unit": "µM"},
      {"measurement": "IC50", "setting": "second compound 0.03 µM", "result": "> 3", "unit": "µM"},
      {"measurement": "IC50", "setting": "second compound 0.0949 µM", "result": "> 3", "unit": "µM"},
      {"measurement": "IC50", "setting": "second compound 0.3 µM", "result": "> 3", "unit": "µM"},
      {"measurement": "IC50", "setting": "second compound 0.949 µM", "result": "> 3", "unit": "µM"},
      {"measurement": "IC50", "setting": "second compound 3 µM", "result": "> 3", "unit": "µM"},
      {"measurement": "viability, T/C", "setting": "second compound 0.00949 µM, first compound 0.00949 µM", "result": 87, "unit": "%"},
      {"measurement": "viability, T/C", "setting": "second compound 0.00949 µM, first compound 0.03 µM", "result": 91.7, "unit": "%"},
      {"measurement": "viability, T/C", "setting": "second compound 0.00949 µM, first compound 0.0949 µM", "result": 111, "unit": "%"},
      {"measurement": "viability, T/C", "setting": "second compound 0.00949 µM, first compound 0.3 µM", "result": 57.3, "unit": "%"},
      {"measurement": "viability, T/C", "setting": "second compound 0.00949 µM, first compound 0.949 µM", "result": 43.6, "unit": "%"},
      {"measurement": "viability, T/C", "setting": "second compound 0.00949 µM, first compound 3 µM", "result": 45.3, "unit": "%"},
      {"measurement": "viability, T/C", "setting": "second compound 0.03 µM, first compound 0.00949 µM", "result": 85.3, "unit": "%"},
      {"measurement": "viability, T/C", "setting": "second compound 0.03 µM, first compound 0.03 µM", "result": 67, "unit": "%"},
      {"measurement": "viability, T/C", "setting": "second compound 0.03 µM, first compound 0.0949 µM", "result": 101, "unit": "%"},
      {"measurement": "viability, T/C", "setting": "second compound 0.03 µM, first compound 0.3 µM", "result": 85.6, "unit": "%"},
      {"measurement": "viability, T/C", "setting": "second compound 0.03 µM, first compound 0.949 µM", "result": 96, "unit": "%"},
      {"measurement": "viability, T/C", "setting": "second compound 0.03 µM, first compound 3 µM", "result": 63.3, "unit": "%"},
      {"measurement": "viability, T/C", "setting": "second compound 0.0949 µM, first compound 0.00949 µM", "result": 63.2, "unit": "%"},
      {"measurement": "viability, T/C", "setting": "second compound 0.0949 µM, first compound 0.03 µM", "result": 110, "unit": "%"},
      {"measurement": "viability, T/C", "setting": "second compound 0.0949 µM, first compound 0.0949 µM", "result": 70.5, "unit": "%"},
      {"measurement": "viability, T/C", "setting": "second compound 0.0949 µM, first compound 0.3 µM", "result": 66.6, "unit": "%"},
      {"measurement": "viability, T/C", "setting": "second compound 0.0949 µM, first compound 0.949 µM", "result": 73.7, "unit": "%"},
      {"measurement": "viability, T/C", "setting": "second compound 0.0949 µM, first compound 3 µM", "result": 57.5, "unit": "%"},
      {"measurement": "viability, T/C", "setting": "second compound 0.3 µM, first compound 0.00949 µM", "result": 119, "unit": "%"},
      {"measurement": "viability, T/C", "setting": "second compound 0.3 µM, first compound 0.03 µM", "result": 71, "unit": "%"},
      {"measurement": "viability, T/C", "setting": "second compound 0.3 µM, first compound 0.0949 µM", "result": 54.5, "unit": "%"},
      {"measurement": "viability, T/C", "setting": "second compound 0.3 µM, first compound 0.3 µM", "result": 80.6, "unit": "%"},
      {"measurement": "viability, T/C", "setting": "second compound 0.3 µM, first compound 0.949 µM", "result": 47.6, "unit": "%"},
      {"measurement": "viability, T/C", "setting": "second compound 0.3 µM, first compound 3 µM", "result": 52.5, "unit": "%"},
      {"measurement": "viability, T/C", "setting": "second compound 0.949 µM, first compound 0.00949 µM", "result": 67.6, "unit": "%"},
      {"measurement": "viability, T/C", "setting": "second compound 0.949 µM, first compound 0.03 µM", "result": 66.8, "unit": "%"},
      {"measurement": "viability, T/C", "setting": "second compound 0.949 µM, first compound 0.0949 µM", "result": 83.1, "unit": "%"},
      {"measurement": "viability, T/C", "setting": "second compound 0.949 µM, first compound 0.3 µM", "result": 47.4, "unit": "%"},
      {"measurement": "viability, T/C", "setting": "second compound 0.949 µM, first compound 0.949 µM", "result": 73.5, "unit": "%"},
      {"measurement": "viability, T/C", "setting": "second compound 0.949 µM, first compound 3 µM", "result": 59.2, "unit": "%"},
      {"measurement": "viability, T/C", "setting": "second compound 3 µM, first compound 0.00949 µM", "result": 69.5, "unit": "%"},
      {"measurement": "viability, T/C", "setting": "second compound 3 µM, first compound 0.03 µM", "result": 92.5, "unit": "%"},
      {"measurement": "viability, T/C", "setting": "second compound 3 µM, first compound 0.0949 µM", "result": 77.2, "unit": "%"},
      {"measurement": "viability, T/C", "setting": "second compound 3 µM, first compound 0.3 µM", "result": 73.5, "unit": "%"},
      {"measurement": "viability, T/C", "setting": "second compound 3 µM, first compound 0.949 µM", "result": 67, "unit": "%"},
      {"measurement": "viability, T/C", "setting": "second compound 3 µM, first compound 3 µM", "result": 72.5, "unit": "%"}
    ]},
    {"smiles": "O=C(c1cc(Cc2n[nH]c(=O)c3ccccc23)ccc1F)N1CCN(C(=O)C2CC2)CC1", "note": "+ CNC(C)C(=O)NC1CN(S(=O)(=O)c2cccc(S(=O)(=O)N3CCC4CCC(C(=O)NC(c5ccccc5)c5ccccc5)N4C(=O)C(NC(=O)C(C)NC)C3)c2)CCC2CCC(C(=O)NC(c3ccccc3)c3ccccc3)N2C1=O", "values": [
      {"measurement": "IC50", "setting": "second compound 0.00316 µM", "result": "> 10", "unit": "µM"},
      {"measurement": "IC50", "setting": "second compound 0.01 µM", "result": "> 10", "unit": "µM"},
      {"measurement": "IC50", "setting": "second compound 0.0316 µM", "result": "> 10", "unit": "µM"},
      {"measurement": "IC50", "setting": "second compound 0.1 µM", "result": "> 10", "unit": "µM"},
      {"measurement": "IC50", "setting": "second compound 0.316 µM", "result": "> 10", "unit": "µM"},
      {"measurement": "IC50", "setting": "second compound 1 µM", "result": "> 10", "unit": "µM"},
      {"measurement": "viability, T/C", "setting": "second compound 0.00316 µM, first compound 0.0316 µM", "result": 61.5, "unit": "%"},
      {"measurement": "viability, T/C", "setting": "second compound 0.00316 µM, first compound 0.1 µM", "result": 57.1, "unit": "%"},
      {"measurement": "viability, T/C", "setting": "second compound 0.00316 µM, first compound 0.316 µM", "result": 55, "unit": "%"},
      {"measurement": "viability, T/C", "setting": "second compound 0.00316 µM, first compound 1 µM", "result": 66.5, "unit": "%"},
      {"measurement": "viability, T/C", "setting": "second compound 0.00316 µM, first compound 3.16 µM", "result": 72.8, "unit": "%"},
      {"measurement": "viability, T/C", "setting": "second compound 0.00316 µM, first compound 10 µM", "result": 65.1, "unit": "%"},
      {"measurement": "viability, T/C", "setting": "second compound 0.01 µM, first compound 0.0316 µM", "result": 127, "unit": "%"},
      {"measurement": "viability, T/C", "setting": "second compound 0.01 µM, first compound 0.1 µM", "result": 98.8, "unit": "%"},
      {"measurement": "viability, T/C", "setting": "second compound 0.01 µM, first compound 0.316 µM", "result": 103, "unit": "%"},
      {"measurement": "viability, T/C", "setting": "second compound 0.01 µM, first compound 1 µM", "result": 89.4, "unit": "%"},
      {"measurement": "viability, T/C", "setting": "second compound 0.01 µM, first compound 3.16 µM", "result": 114, "unit": "%"},
      {"measurement": "viability, T/C", "setting": "second compound 0.01 µM, first compound 10 µM", "result": 87, "unit": "%"},
      {"measurement": "viability, T/C", "setting": "second compound 0.0316 µM, first compound 0.0316 µM", "result": 96.9, "unit": "%"},
      {"measurement": "viability, T/C", "setting": "second compound 0.0316 µM, first compound 0.1 µM", "result": 73.4, "unit": "%"},
      {"measurement": "viability, T/C", "setting": "second compound 0.0316 µM, first compound 0.316 µM", "result": 91.3, "unit": "%"},
      {"measurement": "viability, T/C", "setting": "second compound 0.0316 µM, first compound 1 µM", "result": 91.1, "unit": "%"},
      {"measurement": "viability, T/C", "setting": "second compound 0.0316 µM, first compound 3.16 µM", "result": 84.5, "unit": "%"},
      {"measurement": "viability, T/C", "setting": "second compound 0.0316 µM, first compound 10 µM", "result": 88.3, "unit": "%"},
      {"measurement": "viability, T/C", "setting": "second compound 0.1 µM, first compound 0.0316 µM", "result": 97.9, "unit": "%"},
      {"measurement": "viability, T/C", "setting": "second compound 0.1 µM, first compound 0.1 µM", "result": 83.2, "unit": "%"},
      {"measurement": "viability, T/C", "setting": "second compound 0.1 µM, first compound 0.316 µM", "result": 89.7, "unit": "%"},
      {"measurement": "viability, T/C", "setting": "second compound 0.1 µM, first compound 1 µM", "result": 84.9, "unit": "%"},
      {"measurement": "viability, T/C", "setting": "second compound 0.1 µM, first compound 3.16 µM", "result": 94.4, "unit": "%"},
      {"measurement": "viability, T/C", "setting": "second compound 0.1 µM, first compound 10 µM", "result": 76.4, "unit": "%"},
      {"measurement": "viability, T/C", "setting": "second compound 0.316 µM, first compound 0.0316 µM", "result": 68.4, "unit": "%"},
      {"measurement": "viability, T/C", "setting": "second compound 0.316 µM, first compound 0.1 µM", "result": 86.6, "unit": "%"},
      {"measurement": "viability, T/C", "setting": "second compound 0.316 µM, first compound 0.316 µM", "result": 117, "unit": "%"},
      {"measurement": "viability, T/C", "setting": "second compound 0.316 µM, first compound 1 µM", "result": 97.7, "unit": "%"},
      {"measurement": "viability, T/C", "setting": "second compound 0.316 µM, first compound 3.16 µM", "result": 100, "unit": "%"},
      {"measurement": "viability, T/C", "setting": "second compound 0.316 µM, first compound 10 µM", "result": 95, "unit": "%"},
      {"measurement": "viability, T/C", "setting": "second compound 1 µM, first compound 0.0316 µM", "result": 80.7, "unit": "%"},
      {"measurement": "viability, T/C", "setting": "second compound 1 µM, first compound 0.1 µM", "result": 84.9, "unit": "%"},
      {"measurement": "viability, T/C", "setting": "second compound 1 µM, first compound 0.316 µM", "result": 106, "unit": "%"},
      {"measurement": "viability, T/C", "setting": "second compound 1 µM, first compound 1 µM", "result": 99.3, "unit": "%"},
      {"measurement": "viability, T/C", "setting": "second compound 1 µM, first compound 3.16 µM", "result": 78.1, "unit": "%"},
      {"measurement": "viability, T/C", "setting": "second compound 1 µM, first compound 10 µM", "result": 95.3, "unit": "%"}
    ]}
  ]
}
